Results from patent publication US10913781B2, “Pepducin design and use” (Tufts Medical Center, Inc., priority 2011, dated 2021).

What was measured:
[1] = molecular target: T1, PAR1 (Homo sapiens, UniProt P25116); assay: Calcium flux in SW620 cells stably transfected with PAR1, TFLLRN stimulus; type: cell-based; conditions: 30 μM TFLLRN
T1 sequence (P25116 22-425): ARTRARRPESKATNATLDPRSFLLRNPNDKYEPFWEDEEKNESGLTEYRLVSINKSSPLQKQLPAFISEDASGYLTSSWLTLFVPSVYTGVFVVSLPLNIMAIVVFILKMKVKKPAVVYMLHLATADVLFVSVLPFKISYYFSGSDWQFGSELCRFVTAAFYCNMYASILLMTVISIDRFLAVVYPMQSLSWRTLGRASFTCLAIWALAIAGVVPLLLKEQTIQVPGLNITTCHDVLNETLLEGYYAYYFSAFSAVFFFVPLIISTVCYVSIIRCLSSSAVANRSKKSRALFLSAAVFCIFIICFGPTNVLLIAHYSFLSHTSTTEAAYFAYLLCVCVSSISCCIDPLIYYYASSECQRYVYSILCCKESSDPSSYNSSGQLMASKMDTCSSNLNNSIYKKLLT
Protocol: (§1) (A) PAR2 antagonist pepducins P2pal-18S and P2pal-14GQ inhibit calcium flux induced by PAR2 (SLIGRL) (SEQ ID NO:4) but not PAR1 (TFLLRN) (SEQ ID NO:2) agonists. SW620 cells were stably transfected with PAR1 and pretreated for 1 min with various concentrations of P2pal-18S or P2pal-14GQ and then stimulated with 30 μM PAR agonist. […] Cells were stimulated with 1 μM TFLLRN (SEQ ID NO:2), 1 μM SLIGRL (SEQ ID NO:4) or 100 μM AYPGKF (SEQ ID NO:5) and [^3H]-InsP formation measured over 30 min. (C) SW620 cells were treated with the indicated concentrations of P2pal-18S or P2pal-14GQ in the upper well of an 8-μm pore Boyden chamber and allowed to migrate for 18 h towards 10 μM of the PAR2 specific agonist SLIGRL in the lower chamber. The migration to RPMI/0.1% FBS represents random migration. (D) Migration of HEK cells transiently transfected with PAR2 (wild-type, WT), or PAR2-R36A/PAR2-RQ toward chemotactic gradients of 30 nM trypsin in the absence or presence of the indicated concentration of P2pal-18S for 18 h in a transwell apparatus ([…]). Data (n=2-4) are mean±SEM. *, P<0.05 and **, P<0.005.

[2] = molecular target: T2, PAR2 (Homo sapiens, UniProt P55085); assay: PAR2 binding to avidin beads coupled with PAR2 i3 loop 18S peptide
Target sequence in this assay (P55085 26-397): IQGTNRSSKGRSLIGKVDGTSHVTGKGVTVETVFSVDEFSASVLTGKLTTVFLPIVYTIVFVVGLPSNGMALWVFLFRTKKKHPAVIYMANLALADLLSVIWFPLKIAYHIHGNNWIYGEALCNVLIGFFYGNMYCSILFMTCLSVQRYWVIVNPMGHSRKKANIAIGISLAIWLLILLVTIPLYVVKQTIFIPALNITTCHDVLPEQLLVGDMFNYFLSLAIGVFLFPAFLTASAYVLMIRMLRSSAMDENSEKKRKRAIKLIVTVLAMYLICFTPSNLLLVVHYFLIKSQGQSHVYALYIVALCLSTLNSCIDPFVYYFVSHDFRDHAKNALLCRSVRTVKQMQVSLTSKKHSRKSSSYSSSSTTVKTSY

[3] = molecular target: T2, PAR2; assay: Ligand-dependent endocytosis of PAR2; type: cell-based
Description: Additionally, we tested whether P2pal-18S inhibited proteolytic cleavage of PAR2 or endocytosis (DeFea K A, et al. (2000) J Cell Biol 148: 1267-81; Roosterman D, et al. (2003) Am J Physiol Cell Physiol 284: C1319-29; Stalheim L, et al. (2005) Mol Pharmacol 67: 78-87). […] Therefore, the P2pal-18S i3 loop pepducin can inhibit PAR2-dependent calcium signaling, PLC-b inositol phosphate formation, and cell migration, but not proteolytic cleavage or endocytosis.
Target sequence in this assay (P55085 26-397): as above

[4] = molecular target: T1, PAR1; assay: Ligand-dependent endocytosis of PAR1; type: cell-based
[5] = molecular target: T1, PAR1; assay: Human neutrophil chemotaxis to TFLLRN; type: cell-based; design: endogenous in cells; conditions: 10 μM TFLLRN
Protocol: (A) Human neutrophils (n=4 normal volunteers) were analyzed for surface expression of human PAR1, PAR2, and PAR4 by flow cytometry with PAR-specific antibodies. […] Chemotaxis index is the ratio of directed versus random migration over 30 min through a 5-μm pore filter.
P2pal-18S had no effect on PAR1-dependent platelet aggregation (FIG. 5A). Neither P2pal-18S nor P2pal-14GQ caused membrane disruption or apoptosis as assessed by propidium iodide uptake in SW620 cells with up to 30 μM concentrations of pepducin (FIG. 5B).

[6] = molecular target: T2, PAR2; assay: PLC-b inositol phosphate formation, PAR2 (SLIGRL); type: cell-based; design: expressed in transfected cells; host or cells: COS7
Protocol: as §1
Target sequence in this assay (P55085 26-397): as above
Additionally, we tested whether P2pal-18S inhibited proteolytic cleavage of PAR2 or endocytosis (DeFea K A, et al. (2000) J Cell Biol 148: 1267-81; Roosterman D, et al. (2003) Am J Physiol Cell Physiol 284: C1319-29; Stalheim L, et al. (2005) Mol Pharmacol 67: 78-87). […]

[7] = molecular target: T2, PAR2; assay: Human neutrophil chemotaxis toward mast cell conditioned media (PAR2 pepducin); type: cell-based; design: SW620 colon adenocarcinoma cells that endogenously express PAR2; endogenous in cells; host or cells: SW620 (in A7 the SW620 cells were additionally stably transfected with PAR1); conditions: 1 mM P2pal-18S; 30 min
Protocol: (A) Mast cells were treated with 2 mg/mL of mast cell degranulating agent 48/80 or 2% 1-carrageenan/4% kaolin. […] (B) P2pal-18S inhibits human neutrophil chemotaxis (n=6) to mast cell media. Human neutrophils were incubated with […] P2pal-18S, or […] mast cell tryptase inhibitor APC-366 and allowed to migrate 30 min toward CM from mast cells. (C) C57BL/6 mice (n=5) were pretreated with the tryptase inhibitor APC-366 (5 mg/kg, s.c.) or vehicle (20% DMSO) and then challenged with intraplantar injection of 1-carrageenan/kaolin. (D) Mast cell conditioned media (30 μL of 1-carrageenan/kaolin stimulated media) was injected into the hindpaws of C57BL/6 mice treated with 10 mg/kg P2pal-18S or vehicle (n=5). Data represent mean±SEM. #, P=0.07, *, P<0.05 and **, P<0.005. (E) Mast cell-deficient mice have a significant reduction in 1-carrageenan/kaolin induced paw edema (8 h time point, n=4-6) as compared to littermate controls. Mast-cell deficient mice or littermate controls with intact mast cells were treated with P2pal-18S (10 mg/kg, s.c.) or vehicle and hind paws challenged with 1-carrageenan/kaolin irritant. Error bars represent mean±SEM. […]
Target sequence in this assay (P55085 26-397): as above

[8] = molecular target: T2, PAR2; assay: Agonist | (%)^‡; design: SW620 colon adenocarcinoma cells that endogenously express PAR2; endogenous in cells; host or cells: SW620 (in A7 the SW620 cells were additionally stably transfected with PAR1)
Target sequence in this assay (P55085 26-397 limits assumed): as the sequence (P55085 26-397) above

Inhibition of PAR1 calcium flux [1]: did not inhibit
Binding of PAR2 to peptide-coupled avidin beads versus beads alone [2]: enhanced binding
Inhibition of ligand-dependent endocytosis of PAR2 [3]: did not inhibit
Inhibition of ligand-dependent endocytosis of PAR1 [4]: did not inhibit
Antagonist activity, neutrophil chemotaxis, PAR1 [5]: no antagonist activity
Inhibition of PAR2-dependent PLC-b inositol phosphate formation [6]: can inhibit
Inhibition of chemotactic migration toward tryptase-containing mast cell media [7]: completely inhibited
Agonist | (%)^‡ [8]: 3%
Structure (SMILES): CCCCCCCCCCCCCCCC(=O)N[C@@H](CCCNC(=N)N)C(=O)N[C@@H](CO)C(=O)N[C@@H](CO)C(=O)N[C@@H](C)C(=O)N[C@@H](CCSC)C(=O)N[C@@H](CC(=O)O)C(=O)N[C@@H](CCC(=O)O)C(=O)N[C@@H](CC(N)=O)C(=O)N[C@@H](CO)C(=O)N[C@@H](CCC(=O)O)C(=O)N[C@@H](CCCCN)C(=O)N[C@@H](CCCCN)C(=O)N[C@@H](CCCNC(=N)N)C(=O)N[C@@H](CCCCN)C(=O)N[C@@H](CO)C(=O)N[C@@H](C)C(=O)N[C@H](C(=O)N[C@@H](CCCCN)C(N)=O)[C@@H](C)CC [P2pal-18S]
